Source: US20180362961A1, “METHODS AND COMPOSITIONS FOR ENHANCED NUCLEASE-MEDIATED GENOME MODIFICATION AND REDUCED OFF-TARGET SITE EFFECTS” (Danisco US Inc., priority 2015, published 2018)
Like-named read-outs stand apart in the source and are kept apart here.

Key:
[1] = system: Yarrowia lipolytica cells; experiment: Colony PCR of the CAN1 locus to determine frequency of HDR at Cas9/gRNA double-strand breaks; format: cell-based; details: for Fold HDR over untreated (±SEM) / HDR Frequency (±SEM): pRF303, Can1-1 target site, with editing template
Experimental: To determine the frequency of HDR at the targeted double-strand breaks generated by Cas9/gRNA at the Can1-1 target site Yarrowia colony PCR of the CAN1 locus (SEQ ID NO: 40) (primers used, […], forward (SEQ ID NO: 38) and […], reverse (SEQ ID NO: 39)) was performed using standard techniques. If the CAN1 locus was unmodified or contained a small indel generated by NHEJ the colony PCR result would give a band similar in size to the WT CAN1 locus at an apparent size of 2125 bp (SEQ ID NO: 40). If the Cas9/gRNA generated double-strand break had been repaired using the editing templates the PCR would generate a smaller CAN1 locus product 392 bp indicating the deletion of the entire open-reading frame (SEQ ID NO: 41). Colony PCR was performed on all canavanine resistant colonies from cells transformed with pRF303 in the presence of editing template and the fraction of cells where the Cas9/gRNA generated double-strand break was repaired via HDR with the editing template and various Scr-7 treatment schemes was determined (Table 1).

[2] = system: Yarrowia lipolytica cells
From the text: In this example Yarrowia lipolytica cells treated with the DNA Ligase IV inhibitor, Scr7, were transformed with targeting plasmids in the presence and absence of editing templates. Homology directed repair (HDR) occurs between an editing template and the target DNA when there are two regions of homology flanking a region of interest (FIG. 3). A DNA double-stranded break at a target site within the region of interest can initiate HDR replacing the region of interest (FIG. 3, white box) with a modified region of interest carried on the editing template. In this example the modified region of interest lacks the entire open-reading frame of the CAN1 gene.
Cells were phenotypically scored for Canavanine resistance to determine overall targeting efficiency (NHEJ+HDR). Colony PCR of the CAN1 locus (SEQ ID NO: 35) was performed to differentiate repair of the Cas9/gRNA generated double-strand break by HDR or NHEJ.
Three different treatment conditions were tested: Untreated, Scr7-A, and Scr7-B (A schematic of the three treatments is shown in FIG. 4). For all three conditions a uracil auxotrophic strain of Yarrowia lipolytica ATCC20362 was used For the untreated condition the strain was grown for 24 hours on YPD medium plates (Teknova) at 30° C. (also referred to as a pretreatment). 1 loop of cells were resuspended in transformation buffer (35% polyethylene glycol average molecular weight of 3550, 100 mM lithium acetate, 100 mM dithiothreitol, 10 mM Tris, 1 mM EDTA pH 6.0). 100 μl of cell suspension was mixed with 100 ng of either pRF291 (SEQ ID NO: 18) (Cas9 expression, no gRNA) or pRF303 (SEQ ID NO: 24) (Cas9 expression, Can1-1 gRNA expression) with either no editing template or 1 μg linear editing template (SEQ ID NO: 34). Transformation mixtures were incubated at 39° C. for 1 hour at 800 RPM. Transformation mixtures were plated on complete minimal medium plates lacking uracil (Teknova) to select for cells transformed with plasmid DNA. Plates were incubated at 30° C. for 48 hours.
For treatment Scr7-A the strain was grown for 24 hours on YPD medium plates (Teknova) at 30° C. (also referred to as a pretreatment). 1 loop of cells were resuspended in modified transformation buffer (35% polyethylene glycol average molecular weight of 3550, 100 mM lithium acetate, 100 mM dithiothreitol, 10 mM Tris, 1 mM EDTA pH 6.0, 5 μM Scr7). 100 μl of cell suspension was mixed with 100 ng of either pRF291 (SEQ ID NO:18) (Cas9 expression, no gRNA) or pRF303 (SEQ ID NO: 24) (Cas9 expression, Can1-1 gRNA expression) with either no editing template or 1 μg linear editing template (SEQ ID NO: 31). Transformation mixtures were incubated at 39° C. for 1 hour at 800 RPM. Transformation mixtures were plated on complete minimal medium plates lacking uracil (Teknova) to select for cells transformed with plasmid DNA. Plates were incubated at 30° C. for 48 hours.
For treatment Scr7-B the strain was grown for 24 hours on YPD medium plates containing 5 μM Scr7 at 30° C. (also referred to as a pretreatment). 1 loop of cells were resuspended in modified transformation buffer (35% polyethylene glycol average molecular weight of 3550, 100 mM lithium acetate, 100 mM dithiothreitol, 10 mM Tris, 1 mM EDTA pH 6.0, 5 μM Scr7). 100 μl of cell suspension was mixed with 100 ng of either pRF291 (SEQ ID NO:18) (Cas9 expression, no gRNA) or pRF303 (SEQ ID NO: 24) (Cas9 expression, Can1-1 gRNA expression) with either no editing template or 1 μg linear editing template (SEQ ID NO: 31). Transformation mixtures were incubated at 39° C. for 1 hour at 800 RPM. Transformation mixtures were plated on complete minimal medium containing 5 μM Scr-7 plates lacking uracil. Plates were incubated at 30° C. for 48 hours.
For each condition, 24 colonies from each transformation were streak purified on complete minimal plates lacking uracil (Teknova) for single colonies.

[3] = system: Yarrowia lipolytica cells; experiment: Relative copy number analysis (qPCR) of CAN1 fragment for off-target insertion of editing template by NHEJ; format: cell-based; details: for Fraction of cells with single copy of CAN1 / Fraction of cells with ≥2 copies of CAN1: HDR-positive colonies
Experimental: An additional complication of repair of Cas9/gRNA generated double-stranded breaks using editing template is the possibility that the editing template can be incorporated by the NHEJ pathway at other regions of DNA damage. In order to determine the frequency at which this occurs in the cells treated with editing templates under the three different Scr-7 treatments, relative copy number analysis was performed looking for a 62 bp fragment of the CAN1 locus present in both the chromosome and the editing template (SEQ ID NO: 42). Relative copy number analysis was performed on colonies from cells treated with pRF303 (SEQ ID NO: 24) and linear editing template (SEQ ID NO: 34) under all three treatment conditions. If the editing template is only incorporated during the HDR of the Cas9/gRNA double strand break at the CAN1 locus (SEQ ID NO: 35) the cell will only carry a single copy of the copy number analysis fragment (SEQ ID NO: 42). However, if the cell incorporates additional copies of the editing template elsewhere in the genome due to the activity of the NHEJ pathway additional copies of the fragment will be present and the cell will return a higher relative copy number. Briefly, genomic DNA was isolated using standard techniques from colonies that scored positive for HDR of the Can1-1 Cas9/gRNA targeted double strand break. Genomic DNA was normalized to 5 ng/μl. 1 μl of the normalized genomic DNA from each colony was added to three replicate qPCR reactions for both the CAN1 locus (SEQ ID NO: 42), (primers used, AGCGCCAAACCCAAAGC, forward (SEQ ID NO: 43), […], reverse (SEQ ID NO: 44), and 6FAM-[…]-TAMRA, probe (SEQ ID NO: 45)) or as a control the TEF1 locus (SEQ ID NO: 56) (primers used, […], forward (SEQ ID NO: 47), […], reverse (SEQ ID NO: 48) and 6FAM-[…]-TAMRA, probe (SEQ ID NO: 49)). Reactions were run in TaqMAN universal PCR master mix (ABI life technologies) on a life technologies Quant Studio 7 instrument using the following cycling conditions 95° C. for 10 minutes followed by 40 cycles of 95° C. for 15 seconds, 60° C. for 1 minute. 6FAM fluorescence from the probes was monitored through the 40 cycles of the PCR and Ct values were collected. Relative gene copy number was determined by the ΔΔCt method (User Bulletin #2 ABI PRISM 7700 Sequence Detection System (Updated 2001)). Briefly, TEF1 Ct values were used to normalize the data for differences in cell copy number between genomic DNA samples. Genomic DNA from a wildtype strain was used as a reference for the relative quantification for the CAN1 copy number fragment (SEQ ID NO: 42). Software on the Quant studio 7 calculated relative gene copy number and corresponding error for each sample relative to the wildtype strain. The colonies were separated into two bins, those with a single relative copy of the CAN1 analysis fragment (SEQ ID NO: 42) and those with 2 or more relative copies (SEQ ID NO: 42). […] The second bin represents cells where the editing template was used to repair the Cas9/gRNA generated double-strand break at the Can1-1 target site (SEQ ID NO: 22) and was integrated at least once somewhere else in the genome via a NHEJ mechanism.

[4] = Scr7 treatment A, pRF303 and linear editing template
[5] = Scr7 treatment B, pRF303 and linear editing template

For O=c1[nH]c(=S)[nH]c(N=Cc2ccccc2)c1N=Cc1ccccc1 [Scr7], the “Fold HDR over untreated (±SEM)” value ([1]; Scr7 treatment A) was 0.9 ± 0.1 fold, the “HDR Frequency (±SEM)” value ([1]; Scr7 treatment A) was 9.7 ± 1.4 and the “Fold HDR over untreated (±SEM)” value ([1]; Scr7 treatment B) was 1.5 ± 0.3 fold. The “HDR Frequency (±SEM)” value ([1]; Scr7 treatment B) was 16.7 ± 4.8, the “Fold HDR over untreated (±SEM)” value ([1]; Scr7 treatment B, listed as Scr-7) was 1.5 fold and the “Fraction of breaks repaired via HDR, as % of the frequency of untreated or short Scr-7 treatment A” value ([1]; extended Scr-7 treatment B, linear editing template) was 150%. The “Canavanine resistance frequency (±Std. Dev)” value ([2]; Scr7 treatment A (5 μM Scr7 in transformation buffer), pRF291 (Cas9, no gRNA), no editing template) was 0 ± 0, the “Canavanine resistance frequency (±Std. Dev)” value ([2]; Scr7 treatment A, pRF291 (Cas9, no gRNA), with editing template) was 0 ± 0 and the “Canavanine resistance frequency (±Std. Dev)” value ([2]; Scr7 treatment A, pRF303 (Can1-1 gRNA), no editing template) was 62.2 ± 6.7. The “Canavanine resistance frequency (±Std. Dev)” value ([2]; Scr7 treatment A, pRF303 (Can1-1 gRNA), with editing template) was 64.2 ± 6.4, the “Canavanine resistance frequency (±Std. Dev)” value ([2]; Scr7 treatment B (5 μM Scr7 in 24 h pretreatment, transformation buffer and selection plates), pRF291 (Cas9, no gRNA), no editing template) was 0 ± 0 and the “Canavanine resistance frequency (±Std. Dev)” value ([2]; Scr7 treatment B, pRF291 (Cas9, no gRNA), with editing template) was 0 ± 0. The “Canavanine resistance frequency (±Std. Dev)” value ([2]; Scr7 treatment B, pRF303 (Can1-1 gRNA), no editing template) was 68.7 ± 6.3, the “Canavanine resistance frequency (±Std. Dev)” value ([2]; Scr7 treatment B, pRF303 (Can1-1 gRNA), with editing template) was 64.6 ± 20.3 and the Canavanine resistant cells ([2]; pRF291 (Cas9, no functional gRNA), regardless of Scr-7 treatment scheme) was “did not give rise to Canavanine resistance cells”. The “Fraction of cells with single copy of CAN1” value [3, 4] was 0.38, the “Fraction of cells with ≥2 copies of CAN1” value [3, 4] was 0.63 and the “Fraction of cells with single copy of CAN1” value [3, 5] was 1. The “Fraction of cells with ≥2 copies of CAN1” value [3, 5] was 0, the “Colonies with a single copy of the CAN1 editing template” value ([3]; Scr-7 treatment A, pRF303 and linear editing template) was “approximately 40%” and the “Colonies with only a single copy of the CAN1 locus” value ([3]; Scr-7 treatment B, pRF303 and editing template) was 100%.
